Patent US12084485B2 (Intarcia Therapeutics, Inc., priority 2020, dated 2024)

Tests used:
[1] = Weight-loss efficacy in LE DIO rats after bolus SC dosing; assay type: in vivo, rat; conditions: male LE DIO rats, from baseline and vehicle control (ΔΔ %)
[2] = Acute food intake inhibition in Long Evans rats after bolus SC dosing (BioDAQ); assay type: in vivo, rat; conditions: 30 mcg SC bolus
[3] = Body weight changes in LE rats after bolus SC dosing; assay type: in vivo, rat; conditions: 30 mcg/kg SC bolus
[4] = cited from earlier work
[5] = Body composition (quantitative magnetic resonance) in male LE DIO rats; assay type: in vivo, rat; conditions: day 26
[6] = Body composition in male ZDF rats; assay type: in vivo, rat; conditions: day 25
[7] = Comparative in vivo weight loss potency, A120 vs semaglutide, DIO rats (28 days); set-up: species or system rat
[8] = system: HbA1c; assay: Comparative in vivo HbA1c lowering potency, A120 vs semaglutide (28 days); set-up: species or system rat
[9] = ΔΔ % weight decrease in DIO rat at day 27
[10] = ΔΔ % change in HbA1c in ZDF rat at day 27

Compound | DIO Weight Loss (30 mcg/kg SC bolus) % Weight change from Vehicle 2 d [1] | DIO Weight Loss (30 mcg/kg SC bolus) % Weight change from Vehicle 3 d [1] | DIO Weight Loss (30 mcg/kg SC bolus) % Weight change from Vehicle 4 d [1] | % Food Intake Inhibition from Vehicle, 0-24 hr [2] | % Food Intake Inhibition from Vehicle, 25-48 hr [2] | % Food Intake Inhibition from Vehicle, 49-72 hr [2] | % Food Intake Inhibition from Vehicle, 73-96 hr [2] | % Weight change from Vehicle, 1 d [3] | % Weight change from Vehicle, 2 d [3] | % Weight change from Vehicle, 3 d [3] | % Weight change from Vehicle, 4 d [3] | half-life in serum [4] | changes in body composition [5] | changes in body composition [6] | % Weight loss EC50 [7, 9] | % Weight loss ED50 [7, 9] | % Weight loss at 300 mcg/kg/day dose ([7]; ΔΔ % weight decrease in DIO rat at day 27, 300 mcg/kg/day) | % Change HbA1c EC50 [8, 10] | % Change HbA1c ED50 [8, 10] | % Change HbA1c at 300 mcg/kg/day dose ([8]; ΔΔ % change in HbA1c in ZDF rat at day 27, 300 mcg/kg/day)
CC[C@H](C)[C@@H]1NC(=O)[C@H](Cc2ccccc2)NC(=O)[C@H](CCCCN)NC(=O)[C@@H](NC(=O)[C@@H](NC(=O)[C@H](C)NC(=O)[C@H](CCC(=O)O)NC(=O)[C@H](CCCCNC(=O)CC[C@H](NC(=O)CC[C@H](NC(=O)COCCOCCNC(=O)CCCCCCCCCCCCCCCCCCC(=O)O)C(=O)O)C(=O)O)NC(=O)[C@H](CCC(=O)O)NC(=O)[C@H](Cc2ccc(O)cc2)NC(=O)[C@H](CCC(N)=O)NC(=O)[C@H](CCCCN)NC(=O)[C@H](CO)NC(=O)[C@@H](NC(=O)[C@H](CC(=O)O)NC(=O)[C@H](CO)NC(=O)[C@@H](NC(=O)[C@H](Cc2ccccc2)NC(=O)[C@@H](NC(=O)CNC(=O)[C@H](CCC(=O)O)NC(=O)C(C)(C)NC(=O)[C@@H](N)Cc2c[nH]cn2)[C@@H](C)O)[C@@H](C)O)C(C)C)C(C)C)CCCCNC(=O)CC[C@@H](C(=O)N[C@@H](Cc2c[nH]c3ccccc23)C(=O)N[C@@H](CC(C)C)C(=O)N[C@@H](CCCCN)C(=O)N[C@@H](CC(N)=O)C(=O)NCC(=O)NCC(=O)N2CCC[C@H]2C(=O)N[C@@H](CO)C(=O)N[C@@H](CO)C(=O)NCC(=O)N[C@@H](C)C(=O)N2CCC[C@H]2C(=O)N2CCC[C@H]2C(=O)N2CCC[C@H]2C(=O)N[C@@H](CO)C(N)=O)NC1=O [Compound A135] | −3.7% | −4.8% | −4.3% | −52.6% | −62.2% | −29.4% | −8.0% | −4.3% | −7.4% | −6.4% | −4.2% | – | – | – | – | – | – | – | – | –
CC[C@H](C)[C@@H]1NC(=O)[C@H](Cc2ccccc2)NC(=O)[C@H](CCCCN)NC(=O)[C@@H](NC(=O)[C@H](C)NC(=O)[C@H](C)NC(=O)[C@H](CCC(=O)O)NC(=O)[C@H](CCCCNC(=O)CC[C@H](NC(=O)CC[C@H](NC(=O)COCCOCCNC(=O)CCCCCCCCCCCCCCCCCCC(=O)O)C(=O)O)C(=O)O)NC(=O)[C@H](CCC(=O)O)NC(=O)[C@H](Cc2ccc(O)cc2)NC(=O)[C@H](CCC(N)=O)NC(=O)[C@H](CCCCN)NC(=O)[C@H](CO)NC(=O)[C@@H](NC(=O)[C@H](CC(=O)O)NC(=O)[C@H](CO)NC(=O)[C@@H](NC(=O)[C@H](Cc2ccccc2)NC(=O)[C@@H](NC(=O)CNC(=O)[C@H](CCC(=O)O)NC(=O)C(C)(C)NC(=O)[C@@H](N)Cc2c[nH]cn2)[C@@H](C)O)[C@@H](C)O)C(C)C)CCCCNC(=O)CC[C@@H](C(=O)N[C@@H](Cc2c[nH]c3ccccc23)C(=O)N[C@@H](CC(C)C)C(=O)N[C@@H](CCCCN)C(=O)N[C@@H](CC(N)=O)C(=O)NCC(=O)NCC(=O)N2CCC[C@H]2C(=O)N[C@@H](CO)C(=O)N[C@@H](CO)C(=O)NCC(=O)N[C@@H](C)C(=O)N2CCC[C@H]2C(=O)N2CCC[C@H]2C(=O)N2CCC[C@H]2C(=O)N[C@@H](CO)C(N)=O)NC1=O [Compound A137] | −3.0% | −2.9% | −2.7% | −67.0% | −69.0% | −25.7% | −14.7% | −4.7% | −6.6% | −6.0% | −4.8% | – | – | – | – | – | – | – | – | –
human amylin: 37-residue polypeptide hormone co-secreted with insulin from pancreatic β-cells | – | – | – | – | – | – | – | – | – | – | – | about 13 minutes | – | – | – | – | – | – | – | –
semaglutide | – | – | – | – | – | – | – | – | – | – | – | – | primarily due to fat mass loss | primarily due to fat mass loss | 3.9 ng/mL | 23 µg/kg/day | 24% | 6 ng/mL | 36 µg/kg/day | 4.8%
